Measurements published in publication PMC6401477, “Quorum Sensing Signal Selectivity and the Potential for Interspecies Cross Talk” (mBio, 2019).
Several values for one entry are separate records, joined by “and”; a condition that tells them apart may be missing. Equal entries are not always repeated. Where two headings read alike, the source gives them in different places.

Experiments:
QscR [1] = target: T1, QscR (Pseudomonas aeruginosa, UniProt G3XD77); assay: cell-based; conditions: P. aeruginosa PAO-SC4 (pPROBE-PPA1897); read-out: EC50 QscR in native host
T1 construct: expressed in transfected cells; host or cells: E. coli 5α (DH5α) with pJNQ and pPROBE-PPA1897
T1 sequence (G3XD77 1-237): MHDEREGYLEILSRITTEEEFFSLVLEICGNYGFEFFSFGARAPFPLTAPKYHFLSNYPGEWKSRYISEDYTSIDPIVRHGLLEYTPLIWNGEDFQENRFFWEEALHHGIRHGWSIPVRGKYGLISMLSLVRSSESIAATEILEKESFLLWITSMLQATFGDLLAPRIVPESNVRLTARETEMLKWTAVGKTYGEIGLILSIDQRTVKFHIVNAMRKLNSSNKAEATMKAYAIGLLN

LasR [2] = target: T2, LasR (Pseudomonas aeruginosa, UniProt P25084); assay: cell-based; conditions: P. aeruginosa PAO-SC4 (pPROBE-PrsaL); mean ± SEM, n ≥ 3; read-out: EC50 LasR in native host
T2 construct: expressed in transfected cells; host or cells: E. coli 5α (DH5α) with pJNL and pPROBE-PrsaL
T2 sequence (P25084 1-239): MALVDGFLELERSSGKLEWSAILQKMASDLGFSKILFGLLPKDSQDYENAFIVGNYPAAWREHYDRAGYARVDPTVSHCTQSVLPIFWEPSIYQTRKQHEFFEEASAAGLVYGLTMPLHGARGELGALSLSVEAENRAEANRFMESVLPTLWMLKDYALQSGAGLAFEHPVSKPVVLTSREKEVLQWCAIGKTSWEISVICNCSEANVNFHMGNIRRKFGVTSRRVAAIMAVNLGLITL

LasR [3] = target: T2, LasR; assay: cell-based; parameters: species or system P. aeruginosa; conditions: receptor expressed in E. coli (DH5α), arabinose-induced
QscR [4] = target: T1, QscR; assay: cell-based; parameters: species or system P. aeruginosa; conditions: receptor expressed in E. coli (DH5α), arabinose-induced
RhlR [5] = target: T3, RhlR (Pseudomonas aeruginosa, UniProt P54292); assay: cell-based; assay type: cell-based, P. aeruginosa; conditions: for EC50: receptor expressed in E. coli (DH5α), arabinose-induced
T3 sequence (P54292 1-241): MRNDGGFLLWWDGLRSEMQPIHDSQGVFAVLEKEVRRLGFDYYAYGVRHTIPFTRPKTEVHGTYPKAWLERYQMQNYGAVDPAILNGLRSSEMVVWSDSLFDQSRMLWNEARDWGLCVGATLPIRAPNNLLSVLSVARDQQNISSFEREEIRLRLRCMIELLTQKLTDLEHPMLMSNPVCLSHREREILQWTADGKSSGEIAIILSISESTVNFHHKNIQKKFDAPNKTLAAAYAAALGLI

LuxR = target: T4, LuxR (Aliivibrio fischeri, UniProt P12746); assay: cell-based; conditions: V. fischeri MJ215, luminescence; read-out: EC50 LuxR in native host
T4 construct: endogenous in cells; host or cells: V. fischeri MJ215
T4 sequence (P12746 1-250): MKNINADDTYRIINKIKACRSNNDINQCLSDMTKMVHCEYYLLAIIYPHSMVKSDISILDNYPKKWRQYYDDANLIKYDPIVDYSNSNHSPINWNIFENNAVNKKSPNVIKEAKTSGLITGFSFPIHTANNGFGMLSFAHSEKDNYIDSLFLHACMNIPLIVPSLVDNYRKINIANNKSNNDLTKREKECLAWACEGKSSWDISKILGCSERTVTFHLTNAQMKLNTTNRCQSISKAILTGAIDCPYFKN

CviR = target: T5, CviR (Chromobacterium violaceum, UniProt D3W065); assay: cell-based; conditions: C. violaceum CV026, violacein; read-out: EC50 CviR in native host
T5 construct: Violacein was used as a measure of CviR activity in C. violaceum (CV026); endogenous in cells; host or cells: C. violaceum CV026

BtaR1 [6] = target: T6, BtaR1 (Burkholderia thailandensis, UniProt Q2T543); assay: cell-based; parameters: species or system B. thailandensis
T6 sequence (Q2T543 1-239): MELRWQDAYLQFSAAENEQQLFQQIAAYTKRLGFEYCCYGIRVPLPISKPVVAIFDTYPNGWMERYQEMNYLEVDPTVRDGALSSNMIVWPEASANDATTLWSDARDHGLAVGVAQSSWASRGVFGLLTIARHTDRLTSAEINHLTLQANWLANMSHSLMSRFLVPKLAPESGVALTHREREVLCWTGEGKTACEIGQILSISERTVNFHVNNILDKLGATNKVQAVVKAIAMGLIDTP

BtaR1 [7] = target: T6, BtaR1; assay: cell-based; parameters: species or system B. thailandensis; remark: listed apart in the source
BtaR2 [8] = target: T7, BtaR2 (Burkholderia thailandensis, UniProt Q2T5X2); assay: cell-based; parameters: species or system B. thailandensis
T7 sequence (Q2T5X2 1-234): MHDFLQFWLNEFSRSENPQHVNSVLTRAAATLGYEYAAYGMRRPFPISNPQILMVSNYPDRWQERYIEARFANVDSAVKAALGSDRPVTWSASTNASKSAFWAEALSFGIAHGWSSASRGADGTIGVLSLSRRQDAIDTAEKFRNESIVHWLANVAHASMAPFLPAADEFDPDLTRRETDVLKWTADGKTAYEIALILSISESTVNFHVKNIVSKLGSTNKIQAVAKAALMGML

BtaR2 [9] = target: T7, BtaR2; assay: cell-based; parameters: species or system B. thailandensis; remark: listed apart in the source
RhlR [10] = target: T3, RhlR; assay: cell-based; parameters: species or system P. aeruginosa; conditions: rhlR overexpressed via pJNR in PAO-SC4; mean ± SEM, n ≥ 3; read-out: EC50 overexpression (RhlR)
RhlR [11] = target: T3, RhlR; assay type: cell-based; conditions: at 1 mM; native P. aeruginosa reporter

Structure (SMILES) | EC50 (QscR [1]) [µM] | EC50 (LasR [2]) [µM] | EC50 (LasR [3]) [µM] | EC50 (QscR [4]) [µM] | EC50 (RhlR [5]) [µM] | EC50 (LuxR) | EC50 (CviR) [µM] | EC50 (BtaR1 [6]) [µM] | EC50 (BtaR1 [7]) [µM] | EC50 (BtaR2 [8]) [µM] | EC50 (BtaR2 [9]) [µM] | EC50 (RhlR [10]) [µM] | saturation of RhlR activity (RhlR [11]) | effect on RhlR activity in E. coli (RhlR [5]; AHL 100 µM (Fig. S3))
CCCCCCCCCCCCCC(=O)CC(=O)N[C@H]1CCOC1=O [3OC16-HSL] | > 100 | 7.05 ± 1.88 | 0.13 ± 0.03 | 0.17 ± 0.07 | > 100 | > 100 µM | > 100 | 1.37 ± 0.27 | > 100 |  |  |  |  | 
CCCCCCCCCCCC(=O)CC(=O)N[C@H]1CCOC1=O [3OC14-HSL, N-3-oxotetradecanoyl-L-homoserine lactone] |  | 2.35 ± 0.66 | 0.0125 ± 0.0045 |  | > 100 | > 100 µM | > 100 | 1.26 ± 0.25 | > 100 |  |  |  |  | 
CCCCCCCCCCCCCCCC(=O)N[C@H]1CCOC1=O [C16-HSL] | > 100 | > 100 |  | > 100 | > 100 | > 100 µM | > 100 |  |  | > 100 | > 100 |  |  | 
CCCCCCCCCCCC(O)CC(=O)N[C@H]1CCOC1=O (stereo partly drawn) [3OHC14-HSL] |  | 2.66 ± 0.68 | 0.2 ± 0.02 | 0.15 ± 0.04 | > 100 | > 100 µM | > 100 | 2.23 ± 0.73 | > 100 |  |  |  |  | 
CCCCCCCCCC(=O)N[C@H]1CCOC1=O [C10-HSL, N-decanoyl-L-homoserine lactone] |  |  | 8.67 ± 1.49 |  | > 100 | 42 ± 7.6 µM | > 100 |  |  |  |  |  |  | 
CCCCCCCCCC(O)CC(=O)N[C@H]1CCOC1=O (stereo partly drawn) [3OHC12-HSL] | 23.9 ± 9.2 | 48.4 ± 13.2 | 1.23 ± 0.86 | 0.11 ± 0.05 | > 100 | > 100 µM | > 100 |  |  |  | 0.0915 ± 0.0252 |  |  | 
CCCCCCCCCCCCCC(=O)N[C@H]1CCOC1=O [C14-HSL] | > 100 |  | 0.36 ± 0.13 | 0.0896 ± 0.0201 | > 100 | > 100 µM | > 100 | 0.97 ± 0.35 |  |  |  |  |  | 
CCCC(O)CC(=O)N[C@H]1CCOC1=O (stereo partly drawn) [3OHC6-HSL] | > 100 | > 100 | > 100 | > 100 | > 100 |  |  | > 100 | > 100 |  |  |  |  | 
CCCCCCCC(=O)CC(=O)N[C@H]1CCOC1=O [3OC10-HSL] |  |  | 0.21 ± 0.06 | 0.26 ± 0.16 | > 100 | 4 ± 0.51 µM | > 100 | 2.83 ± 1.61 |  |  |  |  |  | 
CCCCCCCC(O)CC(=O)N[C@H]1CCOC1=O (stereo partly drawn) [3OHC10-HSL] |  |  | 7.91 ± 0.45 | 0.0299 ± 0.0134 | > 100 | > 100 µM |  | 1.82 ± 0.07 |  |  |  |  |  | 
CCCC(=O)N[C@H]1CCOC1=O [C4-HSL, N-butyryl-L-homoserine lactone] | > 100 | > 100 | > 100 | > 100 | 122 ± 17 | > 100 µM | 14.3 ± 3.8 |  | > 100 | > 100 | > 100 | 12 ± 3.1 | not saturated | 
CCCCCC(O)CC(=O)N[C@H]1CCOC1=O (stereo partly drawn) [3OHC8-HSL, N-3-hydroxyoctanoyl-L-homoserine lactone] | > 100 | > 100 |  | 5.82 ± 1.49 | > 100 | > 100 µM | 21.2 ± 6.6 |  |  |  |  |  |  | 
CCCCCCCCCCCC(=O)N[C@H]1CCOC1=O [C12-HSL] |  |  | 0.66 ± 0.07 |  | > 100 | > 100 µM | > 100 |  |  |  |  |  |  | 
CCCC(=O)CC(=O)N[C@H]1CCOC1=O [3OC6-HSL] | > 100 |  |  |  |  | 0.272 µM and 0.27 µM | 0.98 ± 0.26 | > 100 | > 100 |  | > 100 |  |  | 
CCCCCCCCCC(=O)CC(=O)N[C@H]1CCOC1=O [3OC12-HSL, N-3-oxo-dodecanoyl-L-homoserine lactone] |  |  |  |  | > 100 | 7.1 ± 2 µM | > 100 |  |  |  |  |  |  | does not affect
CCCCCC(=O)CC(=O)N[C@H]1CCOC1=O [3OC8-HSL] |  | 59.1 ± 7.5 | 17.4 ± 6.5 |  |  | 0.49 ± 0.11 µM | 5.47 ± 0.27 | 1.1 ± 0.29 |  |  |  |  |  | 
CCCCCC(=O)N[C@H]1CCOC1=O [C6-HSL] | > 100 | > 100 | > 100 |  | 134 ± 26 |  | 0.0834 ± 0.0245 |  |  |  | > 100 |  |  | 
CCCCCCCC(=O)N[C@H]1CCOC1=O [C8-HSL] | > 100 | > 100 |  | 1.9 ± 0.27 |  |  | 1.66 ± 0.92 |  |  | 13.9 ± 2.1 |  |  |  | 
CC(O)CC(=O)N[C@H]1CCOC1=O (stereo partly drawn) [3OHC4-HSL] | > 100 | > 100 | > 100 | > 100 | > 100 | > 100 µM | > 100 |  | > 100 |  | 25 ± 2.6 |  |  | 
